Source: patent US11654161B2, “Compositions and methods for neuralgenesis” (priority 2016, dated 2023)

Experiments:
[1] = test system: T-box brain 1 (TBR1); experiment: Real time RT-PCR of BMPS after toxicant exposure: TBR1; format: cell-based, human; conditions: for reduction of TBR1 gene expression: 24 hours exposure, sub-cytotoxic concentrations; for TBR1 gene expression: non-cytotoxic concentrations
Protocol: (§1) Total RNA was extracted from aggregates every week up to 8 weeks of differentiation using Tripure (Roche, Switzerland) according to Chomczynski and Sacchi (1987). The same RNA extraction method was used to isolate RNA after toxicant treatment. RNA quantity and purity was determined using NanoDrop 2000c (Thermo Scientific). One microgram of RNA was reverse-transcribed using the M-MI V Promega Reverse Transcriptase (Promega) according to the manufacturer's recommendations. For miRNA reverse-transcription 60 ng of RNA were reverse transcribed using TaqMan microRNA Reverse transcription kit in combination with miRNA specific stem-loop primers, which are a part of TaqMAn microRNA expression assay. Upto eight stem-loop primers were multiplexed in one reaction.
(§2) The expression of genes was evaluated using specific Taqman® gene expression assays (Life Technologies). miRNA expression was analyzed using TaqMAn microRNA expression assay in combination with TaqMan miRNA Reverse Transcription kit using protocol described in [77]. […] Real time RT-PCRs were performed using a 7500 Fast Real Time system machine (Applied Biosystems). Fold changes were calculated using the 2(−ΔΔCt) method. β-actin and 18s were used as a housekeeping genes for mRNA and RNU44 for miRNA. There were no statistically significant differences in expression for β-actin, 18s, and RNU44. Data were presented as mean±SD, normalized to housekeeping genes and week 0.

[2] = test system: Tyrosine hydroxylase (TH) mRNA; experiment: Real time RT-PCR of BMPS after toxicant exposure: TH; format: cell-based, human; conditions: for TH mRNA expression decreased by: 24 hours, 5 μM rotenone, 1000 E M MPP+; for TH gene expression compared to controls: BMPS treated with rotenone or MPP+
Protocol: as §1, §2

[3] = test system: dopaminergic neurons; conditions: for Alterations in other neurofilament 200-positive neurons: cytotoxic concentrations: 10 μM rotenone; for General cytotoxicity and effect on other neuronal types at higher concentrations: up to 50 μM rotenone, up to 5000 μM MPP+
Protocol: Initially, cytotoxicity experiments were performed to estimate sub-cytotoxic concentrations of these two compounds affecting only dopaminergic neurons (FIGS. 4A and 4C). […] Reactive oxygen species (ROS) were measured in the cellular medium using the OxiSelect™ In Vitro ROS/RNS Assay Kit (Cellbiolabs, San Diego, Calif.) as an indication of oxidative stress. […] Real time RT-PCR was performed in order to determine effects of both chemicals on genes related to PD, mitochondrial dysfunction and oxidative stress.
BMPS aggregates were collected at 2, 4 and 8 weeks. BMPS were fixed in 4% paraformaldehyde for 1 hour, washed 3 times in PBS, then incubated for 1 hour in blocking solution consisting of 5% normal goat serum (NGS) in PBS with 0.4% TritonX (Sigma). BMPS were then incubated at 4° C. for 48 hours with a combination of primary antibodies (Table 2) diluted in PBS containing 3% NGS and 0.1% TritonX. BMPS were washed in PBS 3 times after which they were incubated with the appropriate fluorophore-tagged secondary antibody for 1 hour in PBS with 3% NGS at room temperature. Double immunostaining was visualized using the proper combination of secondary antibodies (e.g., goat anti-rabbit secondary antibody conjugated with Alexa 594 and goat anti-mouse secondary antibody conjugated with Alexa 488 (Molecular Probes). Nuclei were counterstained with DRAQ5 dye (Cell Signaling; 1:5000 in 1×PBS) or NucRed Live (Molecular Probes) for 15 minutes before mounted on slides with coverslips and Prolong Gold antifade reagent (Molecular Probes); BMPS used as negative controls for immunostaining were processed omitting the primary antibody. Images were taken using a Zeiss UV-LSM 510 confocal microscope. The experiments were performed in duplicates; at least three different fields of view were analyzed for each combination of antibodies. 3D reconstruction was done using Imaris 7.6.4 software for scientific imaging.

[4] = test system: Reactive oxygen species (ROS); experiment: OxiSelect In Vitro ROS/RNS Assay in cellular medium of BMPS; format: cell-based, human; conditions: 5 μM rotenone, 1000 μM MPP+
From the text: This is a fluorescence-based assay measuring the presence of total free radicals within a sample and was used according to the manufacturer's protocol. The quenched fluorogenic dye dichlorodihydrofluorescin-DiOxyQ (DCFH-DiOxyQ) which is similar to the popular 2′,7′-dichlorodihydrofluorescein diacetate (DCFH-DA) is first primed with a quench removal reagent. The resulted highly reactive non-fluorescent DCFH can react with present ROS species in the cell supernatant and is then oxidized to the highly fluorescent DCF (2′,7′-dichlorodihydroxyfluorescein). At every time point, 50 μl of the cell supernatant was added to a 96-well plate in triplicates and was mixed and incubated with the DCFH-DiOxyQ for 45 minutes. The fluorescence intensity was measured with a fluorescence microplate reader at 480 nm/530 nm (excitation/emission) and was proportional to the total ROS/RNS levels within the sample.

[5] = test system: Caspase-1 (CASP1); experiment: Real time RT-PCR of BMPS after toxicant exposure: Caspase-1; format: cell-based, human
Protocol: as §1
as §2, with “Data were presented as mean±SD, normalized to housekeeping genes and week 0.” left out

[6] = test system: Alpha-synuclein (SNCA); experiment: Real time RT-PCR of BMPS after toxicant exposure: SNCA; format: cell-based, human; conditions: for reduction of SNCA gene expression: 24 hours exposure, sub-cytotoxic concentrations
Protocol: as §1, §2

[7] = test system: KEAP1; experiment: Real time RT-PCR of BMPS after toxicant exposure: KEAP1; format: cell-based, human; conditions: 24 h exposure to 1 mM MPP+
From the text: In one embodiment, the model described herein is useful for studying Parkinson's disease (PD). Traditionally, PD has been described as a pre-synaptic degenerative process that affects dopaminergic neurons and induces a fundamental motor disorder, however, non-motor symptoms can also be present. Research in Parkinson's disease is experiencing an upswing at the moment, owing to a lack of curative drugs for the large number of patients. […] These model toxins are mainly used in mice and primates (and less in cell cultures) to model a disease state resembling PD. Human neurons, which would be most relevant, are not usually available and existing cell lines are only very poor substitutes. […]
(§3) Total RNA was extracted from aggregates every week up to 8 weeks of differentiation using Tripure (Roche, Switzerland) according to Chomczynski and Sacchi (1987). […] RNA quantity and purity was determined using NanoDrop 2000c (Thermo Scientific). […]
(§4) The expression of genes was evaluated using specific Taqman® gene expression assays (Life Technologies). miRNA expression was analyzed using TaqMAn microRNA expression assay in combination with TaqMan miRNA Reverse Transcription kit using protocol described in [77]. […] Fold changes were calculated using the 2(−ΔΔCt) method. β-actin and 18s were used as a housekeeping genes for mRNA and RNU44 for miRNA. […]

[8] = test system: BMPS; experiment: Resazurin reduction cytotoxicity assay of BMPS after rotenone and MPP+ treatment; format: cell-based, human; conditions: 24 h exposure
Protocol: DMSO was used as vehicle control. MPP+ working solutions were prepared in differentiation medium from 30 mM stocks to reach final concentrations of 10, 50, 100, 500, 1,000, 5,000 and 10,000 μM. Four independent experiments in 3 replicates were performed for each experimental condition (control and toxicant exposure for the different time points). […] Resazurin (7-Hydroxy-3H-phenoxazin-3-one 10-oxide) is a blue dye that is reduced into red fluorescent resorufin by redox reactions in viable cells. 100 μl Resazurin (2 mg/ml stock) were added directly to the 6 well plates (2 ml/well). Plates were incubated for 3 h at 37° C., 5% CO2. Subsequently, 50 μl of medium were transferred from each well in triplicates to a 96-well plate and fluorescence was measured at 530 nm/590 nm (excitation/emission) using a multi-well fluorometric reader CytoFluor series 4000 (PerSeptive Biosystems, Inc). Data were presented as mean±SD. Statistical analysis was performed using Dunnett's test.

[9] = test system: PD-related genes (TH, TBR1, SNCA, KEAP1, NDUFB1, ATP5C1, ATP50 and CASP1); experiment: Real time RT-PCR of BMPS after toxicant exposure: PD-related gene panel; format: cell-based, human; conditions: 5 μM rotenone, 1 mM MPP+
From the text: Induced pluripotent stem cells (iPSC)-derived human-relevant microphysiological systems (MPS) better mimic the organ level, but are too complex for chemical and drug screening. As described herein, a reproducible 3D brain MPS (BMPS) that differentiates into mature neurons and glial cells (astrocytes and oligodendrocytes), which reproduces the topology of neuronal-glial interactions and connectivity in the central nervous system was developed. […]
as §3, §4

[10] = test system: NDUFB1, ATP5C1, ATP50; experiment: Real time RT-PCR of BMPS after toxicant exposure: mitochondrial function genes; format: cell-based, human; conditions: for Expression of genes related to mitochondrial function (NDUFB1, ATP5C1, ATP50): 24 hours exposure, 5 μM rotenone, 1000 μM MPP+; for Mitochondrial function genes (NDUFB1, ATP5C1, ATP50), MPP+ versus rotenone: BMPS treated with MPP+ or rotenone
Protocol: as §1, §2

[11] = test system: Down's syndrome model; experiment: Down's syndrome BMPS exposed to compounds that induce oxidative stress, compared to healthy donor model; conditions: Down's syndrome iPSC-derived model
From the text: FIG. 5A depicts morphological characterization with immunostaining of neurons (MAP2, Syn1, TH, SYP), neural precursor cells (nestin) and glial cells (GFAP) at 8 weeks of differentiation.

| Structure (SMILES) | reduction of TBR1 gene expression [1] [%] | TBR1 gene expression [1] | TH mRNA expression decreased by [2] | TH gene expression compared to controls [2] | Alterations in other neurofilament 200-positive neurons ([3]; 1000 μM MPP+) | General cytotoxicity and effect on other neuronal types at higher concentrations [3] | ROS production ([4]; 12 hours exposure) | ROS production ([4]; 24 hours exposure) | reduction of SNCA gene expression [6] [%] | cytotoxic concentrations [8] [µM] | Expression of PD-related genes [9] | Expression of genes related to mitochondrial function (NDUFB1, ATP5C1, ATP50) [10] | Mitochondrial function genes (NDUFB1, ATP5C1, ATP50), MPP+ versus rotenone [10] | other results |
| --- | --- | --- | --- | --- | --- | --- | --- | --- | --- | --- | --- | --- | --- | --- |
| C[n+]1ccc(-c2ccccc2)cc1 [MPP+, 1-methyl-4-phenylpyridinium] | 76±22 | down-regulated | 70%±9 | decreased TH gene expression compared to controls | did not show any alterations in other neurofilament 200-positive neurons | led to general cytotoxicity and affected also other neuronal types stained positive for neurofilament 200 | no statistically significant changes | increase in ROS production | 41±40 | 1000 | altered expression of PD-related genes | tended to decrease in expression but these changes were not statistically significant | down-regulated, more strongly | Disruption of dopaminergic neurons observed by immunohistochemistry ([3]; 5 μM rotenone, 100 μM MPP+): disrupted dopaminergic neurons; Dopaminergic effects at concentrations selected for further studies ([3]; 5 μM rotenone, 1000 μM MPP+): induced clear and selective dopaminergic effects; Selective disruption of dopaminergic neurons but not of any other cell types (immunohistochemistry) ([3]; 24 h, 1p M rotenone, 100 μM MPP+, BMPS differentiated 4 weeks): Selective disruption of dopaminergic neurons but not of any other cell types; Degeneration of dopaminergic neurons ([3]; treatment of BMPS (FIGS. 4E and 4F)): induced specific degeneration of dopaminergic neurons; Caspase-1 (CASP1) expression ([5]; 24 h exposure to 1 NM MPP+): increased significantly; Caspase-1 gene expression ([5]; 24 hours exposure to MPP+): increased; Statistical significance of change in SNCA expression ([6]; BMPS exposed to 1 mM MPP+): no statistically significant changes in SNCA expression; KEAP1 expression (oxidative stress marker) [7]: increase in KEAP1 expression |
| C[n+]1ccc(-c2cc[n+](C)cc2)cc1 [paraquat] | – | – | – | – | – | – | – | – | – | – | – | – | – | Response of Down's syndrome model compared to model from healthy donors [11]: more sensitive to these compounds than the healthy model |
| C=C(C)[C@H]1Cc2c(ccc3c2O[C@@H]2COc4cc(OC)c(OC)cc4[C@@H]2C3=O)O1 [rotenone] | 70±13 | down-regulated | 84%±11 | decreased TH gene expression compared to controls | did not show any alterations in other neurofilament 200-positive neurons | led to general cytotoxicity and affected also other neuronal types stained positive for neurofilament 200 | no statistically significant changes | increase in ROS production | 72±6 | 10 | altered expression of PD-related genes | tended to decrease in expression but these changes were not statistically significant | down-regulated | SNCA gene expression ([6]; 5 μM rotenone, 1 mM MPP+): Reduction of SNCA |
